# Measurements as given in patent publication US20150273086A1, “HYPERPOLARIZED 2-OXOGLUTARATE AS METABOLIC AGENT IN MR” (BRACCO IMAGING S.P.A., priority 2012, published 2015).
# Columns and labels:
# [1] = system: liver cancer cells (Morris7777); conditions: 3.5 mM total substrate, aspartate added, FIG. 13
# Experimental: 10 million liver cancer cells (Morris7777), were harvested and redissolved in 500 μl phosphate buffer (PBS).
# The acquisition was started just before injection of the hyperpolarized substrates.
# [2] = system: prostate cancer cells (PC-3); conditions: 3.5 mM substrate, aspartate added, 14.1 T, 37° C., FIG. 3
# Experimental: 10 million prostate cancer cells (PC-3) were harvested and redissolved in 500 μl phosphate buffer (PBS).
# The acquisition was started just before injection of the hyperpolarized substrate.
# [3] = system: PC-3, HEP-G2, PNT-1A and THLE-3 cells; assay: UV assay of uptake and conversion of 2-oxoglutarate to glutamate in cancerous and normal cells; assay type: cell-based, human; conditions: 20 mM 2-oxoglutarate, 20 mM aspartate as co-substrate, 30 minutes at 37° C., FIG. 2
# Experimental: A combination of cellular uptake of 2-oxoglutarate and conversion of 2-oxoglutarate to glutamate was measured using a UV assay. Following incubation of the cells with 2-oxoglutarate for 30 minutes at 37° C. the cells were disrupted and a perchloric acid extract was made to precipitate the enzymes, whereafter the concentration of the formed product, glutamate, was measured.
# The following UV assay for measuring glutamate production was applied.
# The assay consists of two parts, as shown in the reaction scheme below. In the first part, glutamate is generated by incubating 0.5 million (0.5*10^6) viable cells with 20 mM 2-oxoglutarate and 20 mM aspartate for 30 minutes at 37° C. In the second part the glutamate concentration is measured using commercially available GDH (glutamate dehydrogenase) enzyme to generate 2-oxoglutarate and NADH. The latter is an unfavorable reaction and the reaction is therefore forced in this direction by trapping of the produced NADH in the INT (Iodonitrotetrazolium) reaction.
# Reaction scheme for the assay determining glutamate concentration from cells incubated with 2-oxoglutarate. GDHcell refer to the cellular presence of glutamate dehydrogenase which will convert 2-oxoglutarate to glutamate when 2-oxoglutarate is incubated with whole cells in the first part of the assay. […]
# [4] = system: aspartate transaminase; assay: Aspartate transaminase conversion of hyperpolarized 1-13C-2-oxoglutarate to 1-13C-glutamate with or without co-substrate
# Experimental: The sample was dissolved in 5 ml phosphate buffer (40 mM, pH 7.3) with addition of NaOH (8 μl, 12 M). The pH after dissolution was 7.3. From this hyperpolarized solution aliquots of 300 μl were taken and added one at a time to 5 mm NMR tubes (1-3) kept at 37° C. containing the following:
# Tube 1: 2.5 μl (3.2 U) aspartate transaminase+100 μl (120 mM) glutamate+200 μl 40 mM phosphate buffer pH.7.3.
# Tube 2: 2.5 μl (3.2 U) aspartate transaminase+100 μl (120 mM) aspartate+200 μl 40 mM phosphate buffer pH.7.3.
# Tube 3: 2.5 μl (3.2 U) aspartate transaminase+300 μl (40 mM) phosphate buffer pH.7.3.
# A low pulse angle experiment was performed (15 degree pulses every 0.5 s for 12 s). Following the end of the experiment the procedure was repeated for tube 2 and tube 3.
# [5] = Hydrolysis of hyperpolarized 2-oxoglutaric-(1)-ethyl ester upon dissolution (13C-NMR); assay type: physicochemical; conditions: after 15 s; dissolved in D2O with added NaOH, pH 11
# Experimental: 2-oxoglutaric-(1)-ethyl ester (31 mg, 0.18 mmol) was added to an Eppendorf tube and mixed with 0.7 mg (0.45 μmol) of the carboxylic acid form of the finland radical (tris{8-carboxyl-2,2,6,6-tetramethyl-benzo(1,2-d:4,5-dS)bis(1,3)dithiole-4-yl}methyl, carboxylic acid form). […]. The ethyl ester formed a glass upon rapid freezing. […] […]. The sample was hyperpolarized for 90 min.
# The sample was dissolved in 6 ml D2O with added NaOH (35 μl of 10 M). […] The ester was hydrolyzed up to at least 95%, after 15 s. The 2-oxoglutaric-(1)-ethyl ester was easily hydrolyzed to 2-oxoglutarate during the time of the experiment.
# [6] = Trypan blue staining, total cell number and viability of treated Morris7777 cells; assay type: cell-based, rat; conditions: rat, Etoposide 15 μM 24 hours, Sorafenib 0.5 μM 48 hours
# Experimental: (§1) Morris7777 cells: Etoposide 15 μM, for 24 hours; Sorafenib 0.5 μM for 48 hours.
# (§2) The treatment protocols were evaluated with a standard cellular method, trypan blue staining which provide the total cell numbers and cell viability.
# [7] = system: Morris7777 cells; assay: as above; assay type: cell-based, rat; conditions: Etoposide 15 μM 24 hours, Sorafenib 0.5 μM 48 hours
# Experimental: as §1, §2
# [8] = system: Morris7777 cells; assay: UV assay of 2-oxoglutarate conversion in treated Morris7777 cells; assay type: cell-based, rat; conditions: Etoposide 15 μM 24 hours, Sorafenib 0.5 μM 48 hours, FIG. 10
# Experimental: (§3) The UV assay and conditions used in example 4 were applied. Prior to harvesting the cells have been treated with MS-275, resveratrol, etoposide, or Sorafenib, as follows:
# as §1
# (§4) Uptake and conversion of 2-oxoglutarate were measured as described in example 4.
# [9] = system: EL-4 xenograft mouse lymphoma model; assay: In vivo DNP-MR glutamate signal pre versus post etoposide treatment; parameters: species or system C57BL/6 mouse; conditions: single dose Etoposide 2 mg/mouse i.p.; average over 4 mice, FIG. 8
# Experimental: EL-4 xenograft mouse lymphoma model has been selected as test system to verify the ability of detecting tumour response to a DNA targeting therapy. […].
# Five million EL-4 cells were suspended in 0.1 mL Roswell Park Memorial Institute (RPMI-1640) medium and subcutaneously injected in the flank of 7 weeks old female C57BL/6 mouse.
# DNP experiment has been performed 9-10 days after cells inoculation pre Etoposide treatment and 10-11 days after cells inoculation post single dose Etoposide treatment (a dose of 2 mg/mouse has been i.p. administered by injection of 300 μL of Eposin 20 mg/mL diluted 1:3 in saline solution). DNP sample has been prepared as describes in example 6.
# [10] = system: PC-3 cells; assay: UV assay of 2-oxoglutarate conversion in treated PC-3 cells; assay type: cell-based, human; conditions: MS-275 0.5 μM 48 hours, Resveratrol 50 μM 48 hours, FIG. 9
# Experimental: as §3
# PC-3 cells: MS-275 0.5 μM, for 48 hours; Resveratrol 50 μM for 48 hours.
# as §4
# [11] = system: PC-3 cells; assay: Trypan blue staining, total cell number and viability of treated PC-3 cells; assay type: cell-based, human; conditions: MS-275 0.5 μM 48 hours, Resveratrol 50 μM 48 hours
# Experimental: (§5) PC-3 cells: MS-275 0.5 μM, for 48 hours; Resveratrol 50 μM for 48 hours. The treatment protocols were evaluated with a standard cellular method, trypan blue staining which provide the total cell numbers and cell viability.
# [12] = as above; assay type: cell-based, human; conditions: human, MS-275 0.5 μM 48 hours, Resveratrol 50 μM 48 hours
# Experimental: as §5
compound,measurement,setting,value
1-^13C-2-oxoglutaric acid [hyperpolarized 1-^13C-2-oxoglutarate],produced hyperpolarized 1-13C-glutamate signal relative to 1-13C-lactate signal from hyperpolarized 1-13C-pyruvate,[1],more than 2 times
same,uptake and conversion into hyperpolarized 1-13C-glutamate,[2],taken up by PC-3 cells and converted into hyperpolarized 1-^13C-glutamate
O=C(O)CCC(=O)C(=O)O [2-oxoglutarate],conversion of 2-oxoglutarate in glutamate,[3],higher in carcinoma cells than in normal cells
same,formation of glutamate product by aspartate transaminase,[4]; no co-substrate (tube 3),no product can be formed
same,"conversion to glutamate by aspartate transaminase, aspartate versus glutamate as co-substrate","[4]; tubes 1 and 2, 37° C., FIG. 1",the two amino acids are almost equally effective
CCOC(=O)C(=O)CCC(=O)O [2-oxoglutaric-(1)-ethyl ester],ester hydrolyzed to 2-oxoglutarate,[5],at least 95%
"COc1cc([C@@H]2c3cc4c(cc3[C@@H](O[C@@H]3O[C@@H]5CO[C@@H](C)O[C@H]5[C@H](O)[C@H]3O)[C@H]3COC(=O)[C@H]23)OCO4)cc(OC)c1O [Etoposide, etoposide]",viability,[6],< 85%
same,Cell number,[7],5.5 million
same,conversion of 2-oxoglutarate to glutamate in comparison to untreated cells (control),[8],higher
same,signal of hyperpolarized 1-13C-glutamate post therapy compared to pre therapy,[9],increases two times
Nc1ccccc1NC(=O)c1ccc(CNC(=O)OCc2cccnc2)cc1 [MS-275],conversion of 2-oxoglutarate to glutamate in comparison to untreated cells (control),[10],no change
same,Cell number,[11],4.5 million
Oc1ccc(C=Cc2cc(O)cc(O)c2)cc1 [Resveratrol],conversion of 2-oxoglutarate to glutamate in comparison to untreated cells (control),[10],higher
same,viability at 48 h,[12],> 94%
same,Cell number,[11],1.7 million
"CNC(=O)c1cc(Oc2ccc(NC(=O)Nc3ccc(Cl)c(C(F)(F)F)c3)cc2)ccn1 [Sorafenib, sorafenib]",viability,[6],> 89%
same,Cell number,[7],8 million
same,conversion of 2-oxoglutarate to glutamate in comparison to untreated cells (control),[8],no change
